Measurements: patent US8314215B2, “Mild chemically cleavable linker system” (The Board of Trustees of the Leland Stanford Junior …, priority 2006, dated 2012)

Legend:
Test in all cases: LC/MS/MS identification of proteins from mouse liver extracts labeled with MTS-I-49
Format in all cases: biochemical
[1] = target: T1, peroxisomal acyl-CoA oxidase (Mus musculus, UniProt Q9R0H0)
T1 construct: from tissue; host or cells: mouse liver extract
T1 sequence (Q9R0H0 1-661): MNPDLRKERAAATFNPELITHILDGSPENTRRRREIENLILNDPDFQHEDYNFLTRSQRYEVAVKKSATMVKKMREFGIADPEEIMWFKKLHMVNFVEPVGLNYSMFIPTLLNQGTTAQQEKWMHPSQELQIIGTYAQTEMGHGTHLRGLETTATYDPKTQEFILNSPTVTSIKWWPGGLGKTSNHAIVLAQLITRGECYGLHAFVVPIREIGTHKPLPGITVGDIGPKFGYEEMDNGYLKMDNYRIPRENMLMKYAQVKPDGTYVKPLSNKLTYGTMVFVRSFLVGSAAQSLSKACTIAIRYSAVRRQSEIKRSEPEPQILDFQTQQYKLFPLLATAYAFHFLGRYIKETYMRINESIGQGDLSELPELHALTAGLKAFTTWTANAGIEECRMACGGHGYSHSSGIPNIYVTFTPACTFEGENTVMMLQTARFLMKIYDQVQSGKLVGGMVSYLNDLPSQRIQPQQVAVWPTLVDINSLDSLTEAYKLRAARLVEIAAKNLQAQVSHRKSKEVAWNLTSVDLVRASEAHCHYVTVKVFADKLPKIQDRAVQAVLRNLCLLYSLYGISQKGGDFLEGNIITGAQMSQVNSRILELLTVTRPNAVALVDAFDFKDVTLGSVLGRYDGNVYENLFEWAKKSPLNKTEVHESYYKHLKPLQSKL
Text: (§1) (1991) Irreversible inhibition of serine proteases by peptide derivatives of (alpha-aminoalkyl)phosphonate diphenyl esters. Biochemistry 30, 485-493). However, it has not been used for any proteomic applications. We used MTS-I-49 to label mouse liver extracts and analyze the labeled sample by both SDS-PAGE (FIG. 5B) and by direct chemical cleavage or on bead digestion.
(§2) After enrichment on immobilized avidin, each of the three labeled proteomes (FIG. 5b) was divided into two aliquots. One was prepared for LC-MS/MS analysis by “on bead” digestion, while the other was chemically eluted and digested “in solution.” Proteins identified in each tissue lysate are listed with their accession number and theoretical molecular weight (MW). To compare both approaches, the number of identified peptides and percentage of amino acid sequence coverage is listed for each protein.
(§3) Proteins in the above Table were identified by LC/MS/MS analysis of on bead digested or chemically eluted proteins from mouse liver extracts labeled with MTS-I-49. […] BLAST database searching identified it as liver carboxylesterase 4. A number of additional endogenously biotinylated proteins were identified in the on-bead digested sample.

alcohol dehydrogenase 1 = target: T2, alcohol dehydrogenase 1 (Mus musculus, UniProt P00329)
T2 construct: from tissue; host or cells: mouse liver extract
Text: as §1, §2, §3

hemoglobin alpha 1 = target: T3, hemoglobin alpha 1 (Mus musculus, UniProt P01942)
T3 construct: from tissue; host or cells: mouse liver extract
Text: as §1, §2, §3

[2] = target: T4, glyceraldehyde-3-phosphate dehydrogenase (Mus musculus, UniProt P16858)
T4 construct: from tissue; host or cells: mouse liver extract
Text: as §1, §2, §3

[3] = target: T5, glycine N-methyltransferase (Mus musculus, UniProt Q9QXF8)
T5 construct: from tissue; host or cells: mouse liver extract
T5 sequence (Q9QXF8 1-293): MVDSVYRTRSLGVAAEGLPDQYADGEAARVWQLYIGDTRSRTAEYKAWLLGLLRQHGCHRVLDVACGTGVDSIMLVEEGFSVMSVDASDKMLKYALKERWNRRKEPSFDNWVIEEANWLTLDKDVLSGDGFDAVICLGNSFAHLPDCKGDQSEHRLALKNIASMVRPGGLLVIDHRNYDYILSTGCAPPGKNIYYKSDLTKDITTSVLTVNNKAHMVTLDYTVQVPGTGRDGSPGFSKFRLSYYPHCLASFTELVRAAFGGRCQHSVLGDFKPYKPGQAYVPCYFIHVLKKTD
Text: as §1, §2, §3

[4] = target: T6, methionine adenosyltransferase 1 (Mus musculus, UniProt Q91X83)
T6 construct: from tissue; host or cells: mouse liver extract
Text: as §1, §2, §3

albumin 1 = target: T7, albumin 1 (Mus musculus, UniProt P07724)
T7 construct: from tissue; host or cells: mouse liver extract
Text: as §1, §2, §3

[5] = tested on: 3-hydrozy-3-methylglutaryl-coenzyme A-synthase
Text: as §1, §2, §3

[6] = tested on: fructose-bisphosphate aldolase
Text: as §1, §2, §3

[7] = tested on: glutathione-S-transferase
Text: as §1, §2, §3

[8] = chemically eluted, digested in solution

T4 sequence (P16858 whole entry): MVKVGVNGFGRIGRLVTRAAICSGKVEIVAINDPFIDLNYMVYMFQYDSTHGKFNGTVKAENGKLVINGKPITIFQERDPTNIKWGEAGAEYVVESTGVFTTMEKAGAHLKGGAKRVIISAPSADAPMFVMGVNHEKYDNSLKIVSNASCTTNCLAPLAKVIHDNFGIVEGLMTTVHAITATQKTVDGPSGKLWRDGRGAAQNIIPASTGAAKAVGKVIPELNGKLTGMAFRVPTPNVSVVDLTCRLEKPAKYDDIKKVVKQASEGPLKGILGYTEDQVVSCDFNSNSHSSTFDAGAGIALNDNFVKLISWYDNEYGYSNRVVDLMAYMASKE
T6 sequence (Q91X83 whole entry): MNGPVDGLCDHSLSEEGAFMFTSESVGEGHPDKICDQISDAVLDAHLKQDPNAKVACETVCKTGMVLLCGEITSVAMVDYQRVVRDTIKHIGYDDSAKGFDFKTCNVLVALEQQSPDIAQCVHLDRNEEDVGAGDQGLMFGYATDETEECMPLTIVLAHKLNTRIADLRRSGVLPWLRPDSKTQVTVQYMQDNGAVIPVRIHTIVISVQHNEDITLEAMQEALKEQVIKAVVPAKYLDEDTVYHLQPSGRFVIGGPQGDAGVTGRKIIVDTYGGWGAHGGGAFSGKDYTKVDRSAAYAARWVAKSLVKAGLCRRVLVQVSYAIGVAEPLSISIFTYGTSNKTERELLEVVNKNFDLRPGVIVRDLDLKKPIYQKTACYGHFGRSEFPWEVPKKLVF
T7 sequence (P07724 25-608): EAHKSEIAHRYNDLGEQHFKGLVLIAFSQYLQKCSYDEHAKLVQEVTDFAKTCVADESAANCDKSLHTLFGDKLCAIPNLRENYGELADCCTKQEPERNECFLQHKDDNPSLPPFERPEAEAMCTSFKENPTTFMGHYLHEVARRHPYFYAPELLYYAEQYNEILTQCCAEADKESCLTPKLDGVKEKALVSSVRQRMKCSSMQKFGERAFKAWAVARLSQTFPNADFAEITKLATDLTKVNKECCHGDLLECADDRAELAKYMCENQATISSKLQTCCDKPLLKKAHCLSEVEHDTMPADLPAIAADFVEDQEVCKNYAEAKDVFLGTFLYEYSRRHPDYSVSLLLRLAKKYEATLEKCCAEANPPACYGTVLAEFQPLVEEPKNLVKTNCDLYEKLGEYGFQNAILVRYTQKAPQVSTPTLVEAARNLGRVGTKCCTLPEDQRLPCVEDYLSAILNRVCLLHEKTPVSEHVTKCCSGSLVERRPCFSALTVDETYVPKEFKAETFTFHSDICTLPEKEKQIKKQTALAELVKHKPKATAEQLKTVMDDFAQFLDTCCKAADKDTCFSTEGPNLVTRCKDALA
T2 sequence (P00329 whole entry): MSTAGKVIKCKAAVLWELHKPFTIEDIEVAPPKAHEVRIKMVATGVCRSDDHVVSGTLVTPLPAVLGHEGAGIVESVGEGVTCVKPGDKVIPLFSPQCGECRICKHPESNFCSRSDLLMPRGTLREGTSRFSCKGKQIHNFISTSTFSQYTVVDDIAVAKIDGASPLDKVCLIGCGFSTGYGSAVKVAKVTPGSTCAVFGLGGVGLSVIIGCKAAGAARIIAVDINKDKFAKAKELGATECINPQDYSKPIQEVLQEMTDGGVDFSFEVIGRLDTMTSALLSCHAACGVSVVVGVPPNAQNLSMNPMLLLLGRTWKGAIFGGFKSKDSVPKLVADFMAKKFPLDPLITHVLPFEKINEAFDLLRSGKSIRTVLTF
T3 sequence (P01942 2-142 limits assumed): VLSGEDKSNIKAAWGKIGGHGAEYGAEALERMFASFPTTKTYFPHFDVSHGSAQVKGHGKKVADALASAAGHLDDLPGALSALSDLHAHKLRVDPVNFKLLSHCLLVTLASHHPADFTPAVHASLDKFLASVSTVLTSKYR
T3 sequence (P02088 2-147 partner limits assumed): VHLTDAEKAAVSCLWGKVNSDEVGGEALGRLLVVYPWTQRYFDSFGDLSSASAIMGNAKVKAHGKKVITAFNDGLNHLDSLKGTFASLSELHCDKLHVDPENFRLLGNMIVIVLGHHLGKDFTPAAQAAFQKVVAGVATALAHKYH

Compound: C[C@H](NC(=O)c1ccc(N=Nc2cc(CCNC(=O)CCCC[C@@H]3SC[C@@H]4NC(=O)N[C@@H]43)ccc2O)cc1)C(=O)N[C@@H](C)C(=O)NC(Cc1ccccc1)P(=O)(Oc1ccccc1)Oc1ccccc1 (stereo partly shown) [MTS-I-49]
- Chemical Cleavage, number of identified peptides [1, 8]: 0
- On Bead Digestion, amino acid sequence coverage ([1]; on bead digestion): 4%
- On Bead Digestion, number of identified peptides ([1]; on bead digestion): 2
- Chemical Cleavage, number of identified peptides (alcohol dehydrogenase 1; [8]): 0
- On Bead Digestion, amino acid sequence coverage (alcohol dehydrogenase 1; on bead digestion): 20%
- On Bead Digestion, number of identified peptides (alcohol dehydrogenase 1; on bead digestion): 3
- Chemical Cleavage, number of identified peptides (hemoglobin alpha 1; [8]): 0
- On Bead Digestion, amino acid sequence coverage (hemoglobin alpha 1; on bead digestion): 25%
- On Bead Digestion, number of identified peptides (hemoglobin alpha 1; on bead digestion): 3
- Chemical Cleavage, number of identified peptides [2, 8]: 0
- On Bead Digestion, amino acid sequence coverage ([2]; on bead digestion): 10%
- On Bead Digestion, number of identified peptides ([2]; on bead digestion): 2
- Chemical Cleavage, number of identified peptides [3, 8]: 0
- On Bead Digestion, amino acid sequence coverage ([3]; on bead digestion): 10%
- On Bead Digestion, number of identified peptides ([3]; on bead digestion): 2
- Chemical Cleavage, number of identified peptides [4, 8]: 0
- On Bead Digestion, amino acid sequence coverage ([4]; on bead digestion): 9%
- On Bead Digestion, number of identified peptides ([4]; on bead digestion): 2
- Chemical Cleavage, number of identified peptides (albumin 1; [8]): 0
- On Bead Digestion, amino acid sequence coverage (albumin 1; on bead digestion): 6%
- On Bead Digestion, number of identified peptides (albumin 1; on bead digestion): 2
- Chemical Cleavage, number of identified peptides [5, 8]: 0
- On Bead Digestion, amino acid sequence coverage ([5]; on bead digestion): 6%
- On Bead Digestion, number of identified peptides ([5]; on bead digestion): 2
- Chemical Cleavage, number of identified peptides [6, 8]: 0
- On Bead Digestion, amino acid sequence coverage ([6]; on bead digestion): 6%
- On Bead Digestion, number of identified peptides ([6]; on bead digestion): 2
- Chemical Cleavage, amino acid sequence coverage [7, 8]: 12%
- Chemical Cleavage, number of identified peptides [7, 8]: 2
- On Bead Digestion, amino acid sequence coverage ([7]; on bead digestion): 44%
- On Bead Digestion, number of identified peptides ([7]; on bead digestion): 8
